≈ marks a conversion by molar mass, not a printed value. Like-named read-outs stand apart in the source and are kept apart here. Starred links: 1 amine or outer side, 2 acyl side, 3 side chain; linkers in the order of their positions; H or OH if unused. Non-standard residues stand in square brackets, D forms with d. Residues, ends and D or L forms follow the SMILES beside them. Groups on a side chain read outwards from the residue. *: point of attachment. X3 = CCCCCCCCCCCCCCCCCC(=O)N[C@@H](CCC(=O)N[C@@H](CCC(=O)N[C@@H](CCC(=O)NCCCOCCOCCOCCCNC(=O)CCC(=O)NCCCOCCOCCOCCCNC(=O)CCC(=O)NCCCOCCOCCOCCCN*)C(=O)O)C(=O)O)C(=O)O; X1 = CCCCCCCCCCCCCCCC(=O)N[C@@H](CCC(=O)N[C@@H](CCC(=O)N[C@@H](CCC(=O)NCCCOCCOCCOCCCNC(=O)CCC(=O)NCCCOCCOCCOCCCNC(=O)CCC(=O)NCCCOCCOCCOCCCN*)C(=O)O)C(=O)O)C(=O)O; X4 = CCCCCCCCCCCCCCCCCC(=O)N[C@@H](CCC(=O)N[C@@H](CCC(=O)N[C@@H](CCC(=O)NCCCOCCOCCOCCCNC(=O)CCC(=O)NCCCOCCOCCOCCCN*)C(=O)O)C(=O)O)C(=O)O; Suc = O=C(CCC(=O)[*:2])[*:1]; αMeK = C[C@](N)(CCCCN)C(=O)O; Aib = CC(C)(N)C(=O)O
What was measured:
in vivo = test: in vivo; set-up: species or system Sprague Dawley rats; conditions: Sprague Dawley, rat; for C0 / half-life: iv, 1 mg/kg; for bioavailability / Cmax / Tmax: sc; for Cmax / Tmax: 3 mg/kg
Method: Prior to the testing of a peptide batch, its purity (HPLC-UV) was determined. Dose was corrected for presence of salts, solvent and purity. Bioanalytical screening method for quantification of peptides in rat: Sprague Dawley rats were dosed with study peptide at a dose of 1 mg/kg intravenously (i.v.) or 3 mg/kg subcutaneously (s.c.) as a solution in PBS (0.2 mg/ml and 0.6 mg/ml respectively). Blood samples were collected after: 0.083, 0.25, 0.5, 1, 2, 4, 8, 24, 48 and 72 h (i.v. route) and 0.25, 0.5, 1, 2, 4, 6, 8, 10, 24, 48 and 72 h (s.c route) post application. Plasma samples were analyzed after protein precipitation via liquid chromatography mass spectrometry (LC/MS). PK parameters and half-life were calculated using Phoenix 64 (WinNonlin 6.4)-Pharsight (Certara™) (non-compartment model). Values below the limit of quantification (BLQ) were replaced by zero for subsequent calculations and PK analysis. T½: in-vivo half-life, time required for test compound plasma concentration to be divided by two during the PK experiment. C0: Extrapolated test compound plasma concentration at t=0 time point (i.v. route). Cmax: maximal test compound plasma concentration at the indicated time point (s.c. route). Tmax: Time point where Cmax was attained. F %: s.c. vs i.v. bioavailability, dose-corrected area under curve (AUC) s.c. route divided by AUC i.v.

RXFP1 = target: T1, RXFP1 (Homo sapiens, UniProt Q9HBX9); test: OVCAR5 cAMP assay (HTRF); assay type: cell-based; conditions: for EC50: OVCAR 5 cells expressing endogenous RXFP1, cAMP readout; for Emax: OVCAR 5 cells, maximal cAMP relative to H2-relaxin
T1 construct: OVCAR5 cells expressing endogenous RXFP1; endogenous in cells; host or cells: OVCAR5
T1 sequence (Q9HBX9 1-757): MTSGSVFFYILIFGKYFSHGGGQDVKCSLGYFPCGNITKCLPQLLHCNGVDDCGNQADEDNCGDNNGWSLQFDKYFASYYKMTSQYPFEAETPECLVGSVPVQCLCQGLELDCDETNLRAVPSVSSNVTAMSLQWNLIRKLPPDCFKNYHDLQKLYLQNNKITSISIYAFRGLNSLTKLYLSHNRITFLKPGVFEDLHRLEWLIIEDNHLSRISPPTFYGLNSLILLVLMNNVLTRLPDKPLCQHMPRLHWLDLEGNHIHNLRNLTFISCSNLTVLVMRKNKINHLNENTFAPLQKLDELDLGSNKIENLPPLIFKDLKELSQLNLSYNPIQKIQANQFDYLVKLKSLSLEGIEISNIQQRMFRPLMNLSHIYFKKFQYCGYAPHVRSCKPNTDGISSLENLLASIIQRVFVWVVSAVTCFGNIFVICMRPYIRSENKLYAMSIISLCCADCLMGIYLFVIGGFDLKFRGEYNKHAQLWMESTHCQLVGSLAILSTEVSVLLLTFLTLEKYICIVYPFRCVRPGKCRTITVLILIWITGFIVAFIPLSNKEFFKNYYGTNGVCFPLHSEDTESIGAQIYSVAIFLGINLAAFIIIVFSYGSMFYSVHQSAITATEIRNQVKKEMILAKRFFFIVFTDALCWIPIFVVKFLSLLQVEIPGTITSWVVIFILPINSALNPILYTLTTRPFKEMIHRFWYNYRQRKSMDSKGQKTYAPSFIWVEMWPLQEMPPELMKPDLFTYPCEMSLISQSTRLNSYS
Outline: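 Peptide agonism measured as intracellular cAMP (HTRF) after 30 min at 37° C in serum-free medium, following 40 min 1 mM IBMX preincubation of OVCAR5 cells. Nonlinear regression gave EC50; Emax % = 100 × compound maximal cAMP / H2-relaxin maximal cAMP.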

[1] = Stability in human plasma; assay type: in vitro ADME; conditions: for Human Plasma stability % remaining: T = 0, 37° C., 5 μM; for remaining at 1 h, 5 μM / remaining at 4 h, 5 μM: human, plasma (sodium or lithium heparin), 37° C.
Method: (§1) Prior to the testing of stability in plasma (or blood) of a peptide batch, its purity (HPLC-UV) was determined.
(§2) Rat and Human plasma: anti-coagulant sodium or lithium heparin.
(§3) 100 μM solution of study compound in 50 mM phosphate buffer pH 7.4.
(§4) 950 μL plasma (or blood) was pre-incubated for 5 min at 37° C. 50 μL of compound stock solution was added. Final compound concentration=5 μM. Vortex and transfer 150 μL plasma (or blood) into an Eppendorf for each time point. The time points […] were carried out in duplicate for each species.
(§5) After incubation, 150 μL plasma (or blood) was extracted with 600 μL Acetonitrile containing 1% TFA. Said mixture was then vortexed and centrifuged 10 min at 14600 rpm. 200 μL supernatant was dried under N2. Sample was then reconstituted in 200 μL of H2O/CH3CN 98/2+0.1% FA+50 ng/ml Labetalol and analyzed using the analytical system used in solubility and stability studies.
(§6) For determination of the amount of the remaining peptide, the peak areas of the target compound at t0 and each time point […] were compared, resulting in “% remaining peptide”, following the equation: % remaining peptide=[(peak area peptide time)×100]/peak area peptide t0. The stability was expressed as “% remaining peptide”.

Stability in rat plasma = assay type: in vitro ADME; conditions: for Rat plasma stability % remaining: T = 0, 37° C., 5 μM
Method: as §1, §2, §3, §4, §5, §6

[2] = Solubility testing in buffer; assay type: physicochemical; conditions: target solubility 10.0 mg/ml
[3] = rat, plasma (sodium or lithium heparin), 37° C.
[4] = acetate buffer 50 mM pH 4.5, read-out: Solubility Acetate buffer pH 4.5
[5] = phosphate buffer 50 mM pH 7.4, read-out: Solubility phosphate buffer pH 7.4

| C0 (in vivo) | half-life (in vivo) | bioavailability (in vivo) | Cmax (in vivo) | Tmax (in vivo) | EC50 (RXFP1) | Emax (RXFP1) | Human Plasma stability % remaining [1] | remaining at 1 h, 5 μM [1] | remaining at 4 h, 5 μM [1] | Rat plasma stability % remaining (Stability in rat plasma) | remaining at 1 h, 5 μM (Stability in rat plasma; [3]) | solubility [2, 4] | solubility [2, 5] | remaining at 4 h, 5 μM (Stability in rat plasma; rat, plasma (sodium or lithium heparin), 4 h, 37° C.) | SMILES |
| --- | --- | --- | --- | --- | --- | --- | --- | --- | --- | --- | --- | --- | --- | --- | --- |
| 5.17 µM | 5.59 h | 72% | 2.71 µM | 8 h | 0.27 nM | 95% | 97% | 92% | 91% | 97% | 94% |  |  |  | CCCCCCCCCCCCCCCCCC(=O)N[C@@H](CCC(=O)N[C@@H](CCC(=O)N[C@@H](CCC(=O)NCCCOCCOCCOCCCNC(=O)CCC(=O)NCCCOCCOCCOCCCNC(=O)CCC(=O)NCCCC[C@H](NC(=O)CNC(=O)[C@H](CCC(=O)O)NC(=O)C(C)(C)NC(=O)C(C)(C)NC(=O)[C@@H](NC(=O)[C@H](CCCCNC(C)=O)NC(=O)[C@H](C)NC(=O)[C@H](CCCNC(=N)N)NC(=O)[C@@H](NC(=O)[C@H](CCCCN)NC(=O)[C@H](CCC(=O)O)NC(=O)[C@H](CCCNC(=N)N)NC(=O)CNC(=O)[C@H](CCC(=O)O)NC(=O)[C@H](CC(C)C)NC(C)=O)C(C)C)[C@@H](C)CC)C(=O)N[C@@H](CO)C(=O)N[C@H](C(=O)N[C@@H](Cc1c[nH]c2ccccc12)C(=O)N[C@@H](CO)C(=O)NC(C)(C)C(=O)N[C@@H](CCCNC(=N)N)C(=O)N[C@@H](CCCCN)C(=O)N[C@@H](CCCCNC(C)=O)C(N)=O)[C@@H](C)O)C(=O)O)C(=O)O)C(=O)O [compound 6] (Ac-LEGREKVRAK(Ac)I[Aib][Aib]EGK([Suc-X4])STWS[Aib]RKK(Ac)-NH2) |
| 4.16 µM | 6.34 h | 61% | 1.53 µM | 10 h | 0.07 nM | 95% | 92% | 94% | 87% | 77% | 100% | 11400 µg/mL (≈ 2610 µM) | 11800 µg/mL (≈ 2700 µM) | 66% | CCCCCCCCCCCCCCCCCC(=O)N[C@@H](CCC(=O)N[C@@H](CCC(=O)N[C@@H](CCC(=O)NCCCOCCOCCOCCCNC(=O)CCC(=O)NCCCOCCOCCOCCCNC(=O)CCC(=O)NCCCOCCOCCOCCCNC(=O)CCC(=O)NCCCC[C@H](NC(=O)CNC(=O)[C@H](CCC(=O)O)NC(=O)C(C)(C)NC(=O)C(C)(C)NC(=O)[C@@H](NC(=O)[C@H](CCCCNC(C)=O)NC(=O)[C@H](C)NC(=O)[C@H](CCCNC(=N)N)NC(=O)[C@@H](NC(=O)[C@H](CCCCN)NC(=O)[C@H](CCC(=O)O)NC(=O)[C@H](CCCNC(=N)N)NC(=O)CNC(=O)[C@H](CCC(=O)O)NC(=O)[C@H](CC(C)C)NC(C)=O)C(C)C)[C@@H](C)CC)C(=O)N[C@@H](CO)C(=O)N[C@H](C(=O)N[C@@H](Cc1ccccc1)C(=O)N[C@@H](CO)C(=O)N[C@@](C)(CCCCN)C(=O)N[C@@H](CCCNC(=N)N)C(=O)N[C@@H](C)C(=O)N[C@@H](CCCCNC(C)=O)C(N)=O)[C@@H](C)O)C(=O)O)C(=O)O)C(=O)O [compound 7] (Ac-LEGREKVRAK(Ac)I[Aib][Aib]EGK([Suc-X3])STFS[αMeK]RAK(Ac)-NH2) |
|  |  |  |  |  | 2.12 nM | 91% | 100% | 91% | 89% | 89% | 100% |  | 7680 µg/mL (≈ 1770 µM) |  | CCCCCCCCCCCCCCCC(=O)N[C@@H](CCC(=O)N[C@@H](CCC(=O)N[C@@H](CCC(=O)NCCCOCCOCCOCCCNC(=O)CCC(=O)NCCCOCCOCCOCCCNC(=O)CCC(=O)NCCCOCCOCCOCCCNC(=O)CCC(=O)NCCCC[C@H](NC(=O)CNC(=O)[C@H](CCC(=O)O)NC(=O)C(C)(C)NC(=O)C(C)(C)NC(=O)[C@@H](NC(=O)[C@H](CCCCNC(C)=O)NC(=O)[C@H](C)NC(=O)[C@H](CCCNC(=N)N)NC(=O)[C@@H](NC(=O)[C@H](CCCCN)NC(=O)[C@H](CCC(=O)O)NC(=O)[C@H](CCCNC(=N)N)NC(=O)CNC(=O)[C@H](CCC(=O)O)NC(=O)[C@H](CC(C)C)NC(C)=O)C(C)C)[C@@H](C)CC)C(=O)N[C@@H](CO)C(=O)N[C@H](C(=O)N[C@@H](Cc1ccccc1)C(=O)N[C@@H](CO)C(=O)N[C@@H](CCCCN)C(=O)N[C@@H](CCCNC(=N)N)C(=O)N[C@@H](C)C(=O)N[C@@H](CCCCNC(C)=O)C(N)=O)[C@@H](C)O)C(=O)O)C(=O)O)C(=O)O [compound 13] (Ac-LEGREKVRAK(Ac)I[Aib][Aib]EGK([Suc-X1])STFSKRAK(Ac)-NH2) |
| 4.91 µM | 4.89 h | 65% | 2.07 µM | 6 h | 0.18 nM | 93% |  |  |  |  |  | 9260 µg/mL (≈ 2080 µM) | 8840 µg/mL (≈ 1980 µM) |  | CCCCCCCCCCCCCCCC(=O)N[C@@H](CCC(=O)N[C@@H](CCC(=O)N[C@@H](CCC(=O)NCCCOCCOCCOCCCNC(=O)CCC(=O)NCCCOCCOCCOCCCNC(=O)CCC(=O)NCCCOCCOCCOCCCNC(=O)CCC(=O)NCCCC[C@H](NC(=O)CNC(=O)[C@H](CCC(=O)O)NC(=O)C(C)(C)NC(=O)C(C)(C)NC(=O)[C@@H](NC(=O)[C@H](CCCCNC(C)=O)NC(=O)[C@H](C)NC(=O)[C@H](CCCNC(=N)N)NC(=O)[C@@H](NC(=O)[C@H](CCCNC(=N)N)NC(=O)[C@H](CCC(=O)O)NC(=O)[C@H](CCCNC(=N)N)NC(=O)CNC(=O)[C@H](CCC(=O)O)NC(=O)[C@H](CC(C)C)NC(C)=O)C(C)C)[C@@H](C)CC)C(=O)N[C@@H](CO)C(=O)N[C@H](C(=O)N[C@@H](Cc1c[nH]c2ccccc12)C(=O)N[C@@H](CO)C(=O)NC(C)(C)C(=O)N[C@@H](CCCNC(=N)N)C(=O)N[C@@H](CCCNC(=N)N)C(=O)N[C@@H](CCCCNC(C)=O)C(N)=O)[C@@H](C)O)C(=O)O)C(=O)O)C(=O)O [compound 55] (Ac-LEGRERVRAK(Ac)I[Aib][Aib]EGK([Suc-X1])STWS[Aib]RRK(Ac)-NH2) |
